US4670431A, “Beta-lactam antibacterial agents” (Beecham Group p.l.c., priority 1983, dated 1987)
≈ marks a conversion by molar mass, not a printed value. Where a name gives a salt, the structure may show the parent alone.

Each compound was assayed on P. mirabilis 889 (assay: MIC against P. mirabilis 889). Conditions: not given.
Format: cell-based, Proteus mirabilis
Description: The antibiotic compounds of the present invention are active against a wide range of gram negative and gram positive organisms including E. coli such as, for example ESS, JT4, JT425 and NCTC 10418; Pseudomonas Spp. such Ps.aeruginosa for example 10662 and Dalgleish; Serratia marcescens US32; Klebsiella aerogenes A; Enterobacter cloacae N1; P.mirabilis such as, for example C977 and 889; P.morganii, P.rettgeri; B.subtilis; Staph aureus such as, for example Oxford and Russell; N.catarrhalis 1502; Strep faecalis I; β-Haemolytic Strep CN10. The MIC data included in the following examples is representative of the activity of the compounds of the present invention.

Compound	MIC against P. mirabilis 889 [µg/mL]
CCN1CCN(C(=O)N[C@@H](C(=O)N[C@]2(NC=O)C(=O)N3C(C(=O)O)=C(COC(C)=O)C[S+]([O-])[C@@H]32)c2ccc(OC(C)=O)c(OC(C)=O)c2)C(=O)C1=O (single isomer, unassigned) [Example 1 Isomer A, Sodium 7β-[D-2-[(4-ethyl-2,3-dioxopiperazin-1-yl)carbonylamino]-2-(3,4-diacetoxyphenyl)acetamido]-7α-formamidocephalosporanate-1-oxide]	0.5
CCN1CCN(C(=O)N[C@@H](C(=O)N[C@]2(NC=O)C(=O)N3C(C(=O)O)=C(COC(C)=O)C[S+]([O-])[C@@H]32)c2ccc(OC(C)=O)c(OC(C)=O)c2)C(=O)C1=O (single isomer, unassigned) [Example 1 Isomer B, Sodium 7β-[D-2-[(4-ethyl-2,3-dioxopiperazin-1-yl)carbonylamino]-2-(3,4-diacetoxyphenyl)acetamido]-7α-formamidocephalosporanate-1-oxide]	< 0.06
CCN1CCN(C(=O)N[C@@H](C(=O)N[C@]2(NC=O)C(=O)N3C(C(=O)O)=C(COC(C)=O)C[S+]([O-])[C@@H]32)c2ccccc2)C(=O)C1=O (single isomer, unassigned) [Example 3 Isomer B, Sodium 7β-[D-2-[(4-Ethyl-2,3-dioxopiperazin-1-yl)carbonylamino]-2-phenylacetamido]-7α-formamidocephalosporanate-1-oxide]	0.25
CCN1CCN(C(=O)N[C@@H](C(=O)N[C@]2(NC=O)C(=O)N3C(C(=O)O)=C(CSc4nnnn4C)C[S+]([O-])[C@@H]32)c2ccc(OC(C)=O)c(OC(C)=O)c2)C(=O)C1=O (single isomer, unassigned) [Example 5 Isomer A, Sodium 7β-[D-2-(3,4-diacetoxyphenyl)-2-[(4-ethyl-2,3-dioxopiperazin-1-yl)carbonylamino]acetamido]-7α-formamido-3-[(1-methyl-1H-tetrazol-5-yl)thiomethyl]-ceph-3-em-4-carboxylate-1-oxide]	0.5
CCN1CCN(C(=O)N[C@@H](C(=O)N[C@]2(NC=O)C(=O)N3C(C(=O)O)=C(CSc4nnnn4C)C[S+]([O-])[C@@H]32)c2ccc(OC(C)=O)c(OC(C)=O)c2)C(=O)C1=O (single isomer, unassigned) [Example 5 Isomer B, Sodium 7β-[D-2-(3,4-diacetoxyphenyl)-2-[(4-ethyl-2,3-dioxopiperazin-1-yl)carbonylamino]acetamido]-7α-formamido-3-[(1-methyl-1H-tetrazol-5-yl)thiomethyl]-ceph-3-em-4-carboxylate-1-oxide]	0.06
CCN1CCN(C(=O)N[C@@H](C(=O)N[C@]2(NC=O)C(=O)N3[C@@H](C(=O)O)C(C)(C)[S+]([O-])[C@@H]32)c2ccc(OC(C)=O)c(OC(C)=O)c2)C(=O)C1=O (single isomer, unassigned; isomer a) [Example 17, Sodium 6β-[D-2-[(4-ethyl-2,3-dioxopiperazin-1-yl)carbonylamino]-2-(3,4-diacetoxyphenyl)acetamido]-6α-formamidopenicillanate-1-oxide, Isomer A]	4.0
CCN1CCN(C(=O)N[C@@H](C(=O)N[C@]2(NC=O)C(=O)N3[C@@H](C(=O)O)C(C)(C)[S+]([O-])[C@@H]32)c2ccc(OC(C)=O)c(OC(C)=O)c2)C(=O)C1=O (single isomer, unassigned; isomer b) [Example 18, Sodium 6β-[D-2-[(4-ethyl-2,3-dioxopiperazin-1-yl)carbonylamino]-2-(3,4-diacetoxyphenyl)acetamido]-6α-formamidopenicillanate-1-oxide, Isomer B]	0.5

Same assay, conditions: Proteus mirabilis, 889

Compound	MIC [µg/mL]
CCN1CCN(C(=O)N[C@@H](C(=O)N[C@]2(NC=O)C(=O)N3C(C(=O)O)=C(CSc4nnnn4CC(=O)O)C[S@+]([O-])[C@@H]32)c2ccc(OC(C)=O)c(OC(C)=O)c2)C(=O)C1=O (single isomer, unassigned) [Example 15 Isomer A, 3-[(1-Carboxymethyl-1H-tetrazol-5-yl)thiomethyl]-7β-[D-2(3,4-diacetoxyphenyl)-2-[(4-ethyl-2,3-dioxopiperazin-1-yl)carbonylamino]acetamido]-7α-formamidoceph-3-em-4-carboxylic acid-1-oxide, disodium salt]	0.5
CCN1CCN(C(=O)N[C@@H](C(=O)N[C@]2(NC=O)C(=O)N3C(C(=O)O)=C(CSc4nnnn4CC(=O)O)C[S@@+]([O-])[C@@H]32)c2ccc(OC(C)=O)c(OC(C)=O)c2)C(=O)C1=O (single isomer, unassigned) [Example 15 Isomer B, 3-[(1-Carboxymethyl-1H-tetrazol-5-yl)thiomethyl]-7β-[D-2(3,4-diacetoxyphenyl)-2-[(4-ethyl-2,3-dioxopiperazin-1-yl)carbonylamino]acetamido]-7α-formamidoceph-3-em-4-carboxylic acid-1-oxide, disodium salt]	0.25
CCN1CCN(C(=O)N[C@@H](C(=O)N[C@]2(NC=O)C(=O)N3[C@@H](C(=O)O)C(C)(C)[S+]([O-])[C@@H]32)c2ccc(OC(C)=O)c(OC(C)=O)c2)C(=O)C1=O (stereo partly drawn) [Example 4, Sodium 6β-[D-2-[(4-ethyl-2,3-dioxopiperazin-1-yl)carbonylamino]-2-(3,4-diacetoxyphenyl)acetamido]-6α-formamidopenicillanate-1-oxide]	0.12
CCN1CCN(C(=O)N[C@@H](C(=O)N[C@]2(NC=O)C(=O)N3C(C(=O)[O-])=C(C[n+]4ccccc4)C[S+]([O-])[C@@H]32)c2ccccc2)C(=O)C1=O (stereo partly drawn) [Example 7, 7β-[D-2-[(4-Ethyl-2,3-dioxopiperazin-1-yl)carbonylamino]-2-phenylacetamido]-7α-formamido-3-pyridiniummethyl-ceph-3-em-4-carboxylate-1-oxide]	8 (≈ 12.3 µM)
CCN1CCN(C(=O)N[C@@H](C(=O)N[C@]2(NC=O)C(=O)N3C(C(=O)O)=C(CSc4nnnn4C)CS[C@@H]32)c2ccccc2)C(=O)C1=O [Example 8(b), 7β-[D-2-[(4-Ethyl-2,3-dioxopiperazin-1-yl)carbonylamino]-2-phenylacetamido]-7α-formamido-3-[(1-methyl-1H-tetrazol-5-yl)thiomethyl]ceph-3-em-4-carboxylic acid, sodium salt]	0.125

Further lines, results first:

MIC [µg/mL]	Compound
0.25	CCN1CCN(C(=O)N[C@@H](C(=O)N[C@]2(NC=O)C(=O)N3C(C(=O)O)=C(COC(C)=O)C[S+]([O-])[C@@H]32)c2ccccc2)C(=O)C1=O (single isomer, unassigned) [Example 3 Isomer A, Sodium 7β-[D-2-[(4-Ethyl-2,3-dioxopiperazin-1-yl)carbonylamino]-2-phenylacetamido]-7α-formamidocephalosporanate-1-oxide]
0.25	CCN1CCN(C(=O)N[C@@H](C(=O)N[C@]2(NC=O)C(=O)N3C(C(=O)O)=C(COC(C)=O)C[S@+]([O-])[C@@H]32)c2ccc(O)cc2)C(=O)C1=O (single isomer, unassigned) [Example 14 Isomer A, 7β-[D-2-[(4-Ethyl-2,3-dioxopiperazin-1-yl)carbonylamino]-2-(4-hydroxyphenyl)acetamido]-7α-formamidocephalosporanic acid 1-oxide, sodium salt]
0.12	CCN1CCN(C(=O)N[C@@H](C(=O)N[C@]2(NC=O)C(=O)N3C(C(=O)O)=C(COC(C)=O)C[S@@+]([O-])[C@@H]32)c2ccc(O)cc2)C(=O)C1=O (single isomer, unassigned) [Example 14 Isomer B, 7β-[D-2-[(4-Ethyl-2,3-dioxopiperazin-1-yl)carbonylamino]-2-(4-hydroxyphenyl)acetamido]-7α-formamidocephalosporanic acid 1-oxide, sodium salt]
1	CCN1CCN(C(=O)N[C@@H](C(=O)N[C@]2(NC=O)C(=O)N3[C@@H](C(=O)O)C(C)(C)[S+]([O-])[C@@H]32)c2ccccc2)C(=O)C1=O (single isomer, unassigned) [Example 22 Isomer B, Sodium 6β-[D-2-[(4-ethyl-2,3-dioxopiperazin-1-yl)carbonylamino]-2-phenylacetamido]-6α-formamidopenicillanate-1-oxide]
32 (≈ 78.3 µM)	CC1(C)[C@H](C(=O)O)N2C(=O)[C@@](NC=O)(NC(=O)[C@H](N)c3ccccc3)[C@H]2[S+]1[O-] (single isomer, unassigned; isomer b) [Example 23, 6β-(D-2-Amino-2-phenylacetamido)-6α-formamidopenicillanic acid-1-oxide, isomer B]
2	CC1(C)[C@H](C(=O)O)N2C(=O)[C@@](NC=O)(NC(=O)[C@H](NC(=O)N3CCN(S(C)(=O)=O)C3=O)c3ccc(O)cc3)[C@H]2[S+]1[O-] (single isomer, unassigned; isomer b) [Example 24, Sodium 6β-[D-2-(4-hydroxyphenyl)-2-[[3-(methylsulphonyl)-2-oxoimidazolidin-1-yl]carbonylamino]acetamido]-6α-formamidopenicillanate-1-oxide (isomer B)]
8	CCN1CCN(C(=O)N[C@@H](C(=O)N[C@]2(NC=O)C(=O)N3C(C(=O)O)=C(COC(C)=O)CS(=O)(=O)[C@@H]32)c2ccccc2)C(=O)C1=O [Example 2, Sodium 7β-[D,2-([4-Ethyl-2,3-dioxopiperazin-1-yl]carbonylamino)-2-phenylacetamido]-7α-formamidocephalosporanate-1,1-dioxide]
0.5 (≈ 0.787 µM)	CCN1CCN(C(=O)N[C@@H](C(=O)N[C@]2(NC=O)C(=O)N3C(C(=O)[O-])=C(C[n+]4ccccc4)CS[C@@H]32)c2ccccc2)C(=O)C1=O [Example 7(c), 7β-[D-2-[(4-Ethyl-2.3-dioxopiperazin-1-yl)carbonylamino]-2-phenylacetamido]-7α-formamido-3-pyridiniummethyl-ceph-3-em-4-carboxylate]
